We go through two molecules from US20150313913A1, “POSITIVE ALLOSTERIC MODULATORS OF THE GABA-A RECEPTOR IN THE TREATMENT OF AUTISM” (UNIVERSITY OF WASHINGTON THROUGH ITS CENTER FOR …, priority 2013, published 2015).

Entries after “also recorded” stand apart in the source; their conditions may differ.

One experiment has as its system GABA-A α4 or α6 subtypes. The settings on record: cited from earlier work.
A further experiment deals with Scn1a+/− mice. Nature of the experiment: Open-field social interaction test. The format is in vivo. The settings on record: single i.p. 0.0625 mg/kg 30 min before test, listed as CLZ. As for the experimental part: (§1) The open-field social interaction test was performed as described previously^64 with minor modifications. The test was performed in the open field arena that was used for the open field test. An age- and gender-matched C57Bl/6J mouse (M) caged in a rectangular wire mesh cage (6×6×10 cm), was used as a social cue. The stranger mouse had never been exposed to the test mouse. The test mouse was placed in the open field arena with an empty wire cage for 10 min for habituation. Following the 10 min session, a stranger mouse was placed in the same cage and the test mouse was allowed to explore the arena for another 10 min. The empty cage or caged stranger mouse was placed in the center of one quadrant of the arena, and immobilized on the floor of the arena with double-sided tape. […] The movement of the mouse was recorded with a USB webcam (LIFECAM™ HD-6000, MICROSOFT™) and PC-based video-capture software (WINAVI™ Video Capture, ZJ MEDIA DIGITAL TECHNOLOGY™). The recorded video file was further analyzed by off-line video tracking software (ETHOVISION™ XT 7.0). Time spent in the cage-containing quadrant, and time spent in the area 5 cm proximal to the cage were measured. Immobilization behavior was also measured by video tracking software. […] All data shown are means±s.e.m. and analyzed using two-way ANOVA with Bonferroni's post hoc analysis. […]

Experiment [1] relates to wild-type mice. Nature of the experiment: Open-field social interaction test. The format is in vivo. The settings on record: 0.0625 mg/kg, listed as CLZ. As for the experimental part:
as §1

Experiment [2] concerns wild-type mice. Nature of the experiment: Three-chamber social preference test. The settings on record: 0.0625 mg/kg, listed as CLZ. Type of experiment: in vivo. As for the experimental part: The test was performed as described previously^34 with minor modifications. […] Each partition has a square opening (5×5 cm) in the bottom center. A cylindrical wire cage (10.5 cm diameter; GALAXY PENCIL CUP™ […] D[…]™) was used as an inanimate object or the cage housing a stranger mouse. A cylindrical bottle filled with water was placed on the top of the wire cup to prevent the test mouse from climbing to the top of the cup. The three-chamber unit and wire cups were cleaned with 70% ethanol and wiped with paper towels between each trail. […] The mouse was allowed to freely explore each chamber. […] The wire cage on the other side remained empty (E). […] Thus, the test mouse would now have the choice between a mouse that was already familiar (M1) and a new stranger mouse (M2). […] The movement of the mouse was recorded by a USB webcam (LIFECAM™ HD-6000, MICROSOFT™) and PC-based video capture software (WINAVI™ Video Capture, ZJ MEDIA DIGITAL TECHNOLOGY™). The recorded video file was further analyzed by off-line video tracking software (ETHOVISION™ XT 7.0).
Oral administration is specifically contemplated for the methods described herein, and is well known for both benzodiazepines and non-BDZ GABA-A enhancers as described herein.

The conditions of experiment [3]: cited from earlier work.

Regarding `Cn1ncnc1COc1nn2c(-c3cc(F)ccc3F)nnc2cc1C(C)(C)C` [L-838,417], the “affinity for the α4 or α6 subtypes” value in the experiment on GABA-A α4 or α6 subtypes is “little affinity”.
As for `O=C1CN=C(c2ccccc2Cl)c2cc([N+](=O)[O-])ccc2N1` [Clonazepam], the figures for the “social interaction, open field social interaction test” value in the experiment on Scn1a+/− mice and with wild-type mice [1] were “completely rescued; also recorded: completely restored; also recorded: completely recovered” and “no effect; also recorded: absent; also recorded: not changed”, respectively. Moreover, the “social interaction, 3-chamber social preference test” value in the experiment on wild-type mice [2] is reported as “no effect; also recorded: absent; also recorded: not changed”. Further, the “Dose in humans for anti-anxiety, anti-convulsive, or sedative effects: equivalent dose to 10 mg diazepam” value in experiment [3] (Table 1, values marked *) is 0.5 mg. Further, the “dose of equivalent efficacy to 10 mg of diazepam” value in experiment [3] is 0.5 mg.
